Assays:
Experiment in all cases: relative viability (nuclei count vs DMSO), 5 days (fraction); higher = more cells survive
Quizartinib + Luminespib = compound: CC(C)(C)c1cc(NC(=O)Nc2ccc(-c3cn4c(n3)sc3cc(OCCN5CCOCC5)ccc34)cc2)no1 [Quizartinib] + CCNC(=O)c1noc(-c2cc(C(C)C)c(O)cc2O)c1-c1ccc(CN2CCOCC2)cc1 [Luminespib] (partner 0.01 µM)
Procedure, shortened: (§1)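 The day after seeding in 1536-well plates, lung cancer cell lines were treated by pin tool with a single drug, or with a fixed anchor-drug dose together with five library-drug doses (not always all listed) in √10 steps. After 5 days, a combined fix-and-stain solution (final 0.05% Triton X-100, 1% formaldehyde, 1 ug/ml Hoechst) was added. Nuclei counted on 4× images gave relative viability as treated counts over vehicle counts, reported as the median of duplicate plates.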

Quizartinib + Pictilisib = compound: CC(C)(C)c1cc(NC(=O)Nc2ccc(-c3cn4c(n3)sc3cc(OCCN5CCOCC5)ccc34)cc2)no1 [Quizartinib] + CS(=O)(=O)N1CCN(Cc2cc3nc(-c4cccc5[nH]ncc45)nc(N4CCOCC4)c3s2)CC1 [Pictilisib] (partner 1 µM)
Procedure, shortened: as §1

YM155 + OSI-027 = compound: COCC[n+]1c2c(n(Cc3cnccn3)c1C)C(=O)c1ccccc1C2=O [YM155] + COc1cccc2cc(-c3nc([C@H]4CC[C@H](C(=O)O)CC4)n4ncnc(N)c34)[nH]c12 [OSI-027] (partner 0.5 µM)
Procedure, shortened: as §1

YM155 + AZD7762 = compound: COCC[n+]1c2c(n(Cc3cnccn3)c1C)C(=O)c1ccccc1C2=O [YM155] + NC(=O)Nc1cc(-c2cccc(F)c2)sc1C(=O)N[C@H]1CCCNC1 [AZD7762] (partner 0.2 µM)
Procedure, shortened: as §1

Cell Line | relative viability (Quizartinib + Luminespib; first compound 0.001 µM) | relative viability (Quizartinib + Luminespib; first compound 0.003162 µM) | relative viability (Quizartinib + Luminespib; first compound 0.01 µM) | relative viability (Quizartinib + Luminespib; first compound 0.03162 µM) | relative viability (Quizartinib + Luminespib; first compound 0.1 µM) | relative viability (Quizartinib + Pictilisib; first compound 0.001 µM) | relative viability (Quizartinib + Pictilisib; first compound 0.003162 µM) | relative viability (Quizartinib + Pictilisib; first compound 0.01 µM) | relative viability (Quizartinib + Pictilisib; first compound 0.03162 µM) | relative viability (Quizartinib + Pictilisib; first compound 0.1 µM) | relative viability (YM155 + OSI-027; first compound 0.002 µM) | relative viability (YM155 + OSI-027; first compound 0.006325 µM) | relative viability (YM155 + OSI-027; first compound 0.02 µM) | relative viability (YM155 + OSI-027; first compound 0.06325 µM) | relative viability (YM155 + AZD7762; first compound 0.002 µM) | relative viability (YM155 + AZD7762; first compound 0.006325 µM) | relative viability (YM155 + AZD7762; first compound 0.02 µM) | relative viability (YM155 + AZD7762; first compound 0.06325 µM)
EKVX | 0.673 | 0.805 | 0.862 | 0.829 | 0.865 | 0.464 | 0.478 | 0.471 | 0.407 | 0.476 | 0.683 | 0.759 | 0.683 | 0.687 | 0.591 | 0.723 | 0.747 | 0.483
LC-2-ad | 0.938 | 1.07 | 0.945 |  | 0.985 | 0.398 | 0.516 | 0.351 | 0.323 | 0.276 | 0.804 | 0.917 | 0.773 | 0.621 | 0.8 | 0.842 | 0.854 | 0.841
EBC-1 |  |  |  |  |  | 0.423 | 0.285 | 0.406 | 0.37 | 0.452 |  |  |  |  |  |  |  | 
PC-14 | 0.181 | 0.168 | 0.164 |  | 0.127 | 0.634 | 0.633 | 0.752 | 0.576 | 0.681 | 0.788 | 0.901 | 0.829 | 0.371 | 0.233 | 0.343 | 0.371 | 0.363
NCI-H1395 | 0.68 | 0.52 | 0.841 | 0.71 | 0.69 | 0.478 | 0.65 | 0.661 | 0.695 | 0.667 | 0.579 | 0.665 | 0.684 | 0.705 | 0.351 | 0.41 | 0.4 | 0.434
SW 900 | 0.159 | 0.188 |  | 0.153 | 0.161 |  |  |  |  |  | 0.544 | 0.501 | 0.557 | 0.478 |  | 0.543 | 0.825 | 0.64
NCI-H2009 | 0.915 | 1.01 | 1.07 | 0.967 | 1.03 | 0.475 | 0.799 | 0.833 | 0.604 | 0.737 | 0.567 | 0.604 | 0.647 | 0.382 |  |  |  | 
NCI-H1650 | 0.185 | 0.182 | 0.19 |  | 0.172 | 0.268 | 0.584 | 0.566 |  | 0.547 | 0.677 | 0.783 | 0.594 | 0.613 |  |  |  | 
SW 1573 | 0.163 | 0.21 | 0.164 |  | 0.255 | 0.474 | 0.432 | 0.516 | 0.325 | 0.475 | 0.549 | 0.705 | 0.406 | 0.0803 |  |  |  | 
NCI-H1703 |  |  |  |  |  | 0.3 | 0.183 | 0.216 | 0.154 | 0.24 |  |  |  |  | 0.0937 | 0.114 | 0.138 | 0.132
Calu-6 |  |  |  |  |  | 0.877 | 0.867 | 0.988 | 0.607 | 0.858 |  |  |  |  |  |  |  | 
NCI-H2342 | 0.807 | 0.752 | 0.696 | 0.759 | 0.762 |  |  |  |  |  | 0.555 | 0.701 | 0.666 | 0.623 | 0.612 | 0.379 | 0.515 | 0.383
HCC-366 |  |  |  |  |  |  | 0.138 | 0.103 | 0.137 | 0.138 | 1.08 | 0.767 | 1.01 | 0.945 | 0.315 | 0.28 | 0.327 | 0.273
NCI-H522 | 1.11 | 1.07 | 0.892 | 1.1 | 1.47 |  |  |  |  |  | 0.752 | 0.599 | 0.715 | 0.753 | 0.699 | 0.854 | 0.961 | 0.991
NCI-H1563 | 0.516 | 0.499 | 0.528 | 0.551 | 0.584 | 0.719 | 0.68 | 0.649 |  | 0.626 | 0.752 | 0.754 | 0.652 | 0.741 |  |  |  | 
NCI-H520 | 0.232 | 0.201 | 0.207 | 0.333 | 0.255 | 0.306 | 0.273 | 0.307 | 0.287 | 0.245 | 0.244 | 0.242 | 0.29 | 0.326 |  |  |  | 
SK-LU-1 | 0.205 | 0.191 | 0.212 | 0.201 | 0.232 | 0.545 | 0.547 | 0.606 | 0.491 | 0.588 | 0.358 | 0.316 | 0.396 | 0.348 |  |  |  | 
UMC-11 |  | 0.954 | 1.13 | 1.02 | 1.14 | 0.522 | 0.779 | 0.836 | 0.742 | 0.885 | 0.465 | 0.499 | 0.514 | 0.465 |  |  |  | 
NCI-H2228 | 0.176 | 0.153 | 0.139 | 0.214 | 0.159 | 0.364 | 0.312 | 0.456 | 0.386 | 0.464 | 0.612 | 0.689 | 0.605 | 0.713 |  |  |  | 
COR-L23 | 0.653 | 0.613 | 0.773 | 0.439 | 0.668 | 0.535 | 0.758 | 0.698 | 0.589 | 0.763 | 0.692 | 0.735 | 0.488 | 0.132 |  |  |  | 
NCI-H2023 | 0.73 | 0.664 | 0.759 |  | 0.624 | 0.224 | 0.271 | 0.216 | 0.121 | 0.245 | 0.442 | 0.455 | 0.403 | 0.195 |  |  |  | 
NCI-H661 | 0.921 | 0.899 | 0.929 | 0.905 | 0.9 | 0.425 | 0.388 | 0.364 |  | 0.467 | 0.703 | 0.722 | 0.708 | 0.308 |  |  |  | 
A549 |  |  |  |  |  | 0.457 | 0.441 | 0.598 | 0.211 | 0.614 |  |  |  |  |  |  |  | 
NCI-H1623 | 0.38 | 0.564 | 0.455 | 0.57 | 0.408 |  |  |  |  |  | 0.469 | 0.456 | 0.471 | 0.701 |  |  |  | 
